From patent publication US9371265B2, “Compositions and methods related to inhibitors of JAK kinase” (EP PHARMA, INC., priority 2012, dated 2016) come the findings set out here.

One test has as its target T1, immunopurified JAK3 (Homo sapiens, UniProt P52333).
T1 construct: immunopurified JAK3 from YT cells resuspended in kinase buffer; endogenous in cells; host or cells: YT cells (immunoprecipitate)
The experiment in a line: In vitro JAK3 autokinase assay. Type of test: biochemical. The settings on record: 1 μM ATP, densitometry analysis.

The target in another test is PIM3 (Homo sapiens, UniProt Q86V86). Kind of test: Kinase panel: PIM3. The settings on record: 10 μM EP009. Format: biochemical. The method, then:
(§1) Achieving JAK3 selectivity remains a significant challenge in the development of new small molecules for the treatment of cancer and immune-derived diseases. As such, the inventors employed cell-based screening assays of small-molecule libraries based upon the chemical scaffold of the established JAK3 inhibitor NC1153 (Stepkowski et al., J Immunol. (2005), 175(7):4236-4246) EP009 (FIG. 2A) was selected as a lead compound due to improved intrinsic stability (>95% purity in various solvents at 37° C. for 24 hours; FIG. 3) and high-degree of JAK3 selectivity. To test JAK3 versus JAK2 specificity of EP009, the IL-2/JAK3-dependent Kit225, and IL-3/JAK2-dependent BaF/3 cell lines were used. Kit225 and BaF/3 cells growing in the presence of IL-2 or IL-3, respectively, were treated with ascending concentrations of EP009 for 12 hours and cellular JAK3 and JAK2 tyrosine phosphorylation levels detected by Western blot analysis (FIGS. 2B and 2C). Following densitometric analysis, EP009 was determined to dose-dependently reduce IL-2-mediated JAK3 tyrosine phosphorylation with a cellular 50% inhibitory concentration (IC50) between 10 and 20 μM (FIG. 2B). […] To globally evaluate specificity, the inhibitory activity of EP009 was measured against a panel of protein kinases distributed throughout the kinome using the scanEDGE profiling service (KINOMEscan). […]

The next test addresses RIOK2 (Homo sapiens, UniProt Q9BVS4). The experiment in a line: Kinase panel: RIOK2. Format: biochemical. Particulars: 10 μM EP009. The method, then: as §1
The test system of the next test is STAT3. Kind of test: Phospho-STAT3 in SU-DHL-1 cells (Luminex multiplex). Format: cell-based, human. The settings on record: 0-40 μM, 12 hours. The text has this: FIGS. 6A-6B. EP009 treatment disrupts constitutive JAK3/STAT3 pathway activation and down-regulates CD30 cell surface expression in human ALCL cells. (A) Kit225 (lane a), SUP-M2 (lane b), Karpas299 (lane c), DEL (lane d) and SU-DHL-1 (lane e) total cell lysates were separated by 7.5% SDS-PAGE (upper panel) or were immunoprecipitated (IP) with JAK3 antibodies (lower panel) and separated on 7.5% SDS-PAGE, and then subjected to Western blot (WB) analysis with the indicated antibodies. (B) SU-DHL-1 cells were treated with vehicle (PBS; lane a) or increasing amounts of EP009 (0-40 μM; lanes b-e) for 12 hours. Cells were then lysed, clarified, and immunoprecipitated (IP) with anti-JAK3 (α-JAK3), and subjected to Western blot (WB) analysis with anti-phosphotyrosine (α-pY). Blots were stripped and reprobed with α-JAK3 to verify equivalent protein loading. (C) SU-DHL-1 cells were treated with vehicle (PBS) or increasing amounts of EP009 (0-40 μM) for 12 hours. […] Values represent pSTAT mean fluorescence intensity (MFI) normalized to corresponding GAPDH MFI, while error bars represent the standard deviation (n=2). Statistical significance was determined using Student's t-test. […] Cells were then analyzed by flow cytometry for CD30 expression. […]

A further test concerns the target TSSK1B (Homo sapiens, UniProt Q9BXA7). The experiment in a line: Kinase panel: TSSK1B. Format: biochemical. Particulars: 10 μM EP009. The method, then: as §1

T1 sequence (P52333 whole entry): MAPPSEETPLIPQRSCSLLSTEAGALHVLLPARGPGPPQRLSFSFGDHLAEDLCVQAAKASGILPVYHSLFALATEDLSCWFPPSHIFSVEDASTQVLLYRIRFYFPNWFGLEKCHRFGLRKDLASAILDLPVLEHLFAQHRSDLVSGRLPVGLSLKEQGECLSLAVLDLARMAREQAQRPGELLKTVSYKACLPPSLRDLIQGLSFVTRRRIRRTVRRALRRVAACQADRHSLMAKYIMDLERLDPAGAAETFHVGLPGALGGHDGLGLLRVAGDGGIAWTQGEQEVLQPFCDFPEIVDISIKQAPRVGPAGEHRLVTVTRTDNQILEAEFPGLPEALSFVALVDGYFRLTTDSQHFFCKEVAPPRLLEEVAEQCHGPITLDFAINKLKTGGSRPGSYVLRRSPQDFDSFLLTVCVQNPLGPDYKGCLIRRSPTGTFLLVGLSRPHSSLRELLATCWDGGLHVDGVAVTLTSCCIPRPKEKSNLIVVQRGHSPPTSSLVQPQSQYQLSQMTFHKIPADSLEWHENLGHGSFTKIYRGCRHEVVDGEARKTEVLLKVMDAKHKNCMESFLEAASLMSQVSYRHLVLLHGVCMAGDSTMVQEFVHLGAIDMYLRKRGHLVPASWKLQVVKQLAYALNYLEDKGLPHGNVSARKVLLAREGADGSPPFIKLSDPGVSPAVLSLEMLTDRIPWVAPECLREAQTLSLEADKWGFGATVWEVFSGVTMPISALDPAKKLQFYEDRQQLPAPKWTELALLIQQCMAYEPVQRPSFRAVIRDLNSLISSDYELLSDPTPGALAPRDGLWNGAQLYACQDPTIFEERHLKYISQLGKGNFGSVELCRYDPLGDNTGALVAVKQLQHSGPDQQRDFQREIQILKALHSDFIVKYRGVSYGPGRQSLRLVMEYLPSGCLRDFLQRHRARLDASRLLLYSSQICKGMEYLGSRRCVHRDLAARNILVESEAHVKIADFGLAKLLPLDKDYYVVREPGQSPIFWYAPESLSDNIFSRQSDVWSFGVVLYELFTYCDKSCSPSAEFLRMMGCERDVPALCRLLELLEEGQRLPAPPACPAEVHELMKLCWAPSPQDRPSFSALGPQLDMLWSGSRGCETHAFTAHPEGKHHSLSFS
Chain of TSSK1B (Q9BXA7 whole entry): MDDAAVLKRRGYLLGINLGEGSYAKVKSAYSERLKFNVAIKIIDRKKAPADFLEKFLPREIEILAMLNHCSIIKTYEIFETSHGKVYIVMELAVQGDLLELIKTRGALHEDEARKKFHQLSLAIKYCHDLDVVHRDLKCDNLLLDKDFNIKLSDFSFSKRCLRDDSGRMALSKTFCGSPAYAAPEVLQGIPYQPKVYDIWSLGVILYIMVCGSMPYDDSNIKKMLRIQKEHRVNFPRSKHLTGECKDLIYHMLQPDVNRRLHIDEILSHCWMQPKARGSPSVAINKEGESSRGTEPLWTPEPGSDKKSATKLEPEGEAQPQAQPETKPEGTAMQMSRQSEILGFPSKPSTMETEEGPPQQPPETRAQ
Chain of RIOK2 (Q9BVS4 whole entry): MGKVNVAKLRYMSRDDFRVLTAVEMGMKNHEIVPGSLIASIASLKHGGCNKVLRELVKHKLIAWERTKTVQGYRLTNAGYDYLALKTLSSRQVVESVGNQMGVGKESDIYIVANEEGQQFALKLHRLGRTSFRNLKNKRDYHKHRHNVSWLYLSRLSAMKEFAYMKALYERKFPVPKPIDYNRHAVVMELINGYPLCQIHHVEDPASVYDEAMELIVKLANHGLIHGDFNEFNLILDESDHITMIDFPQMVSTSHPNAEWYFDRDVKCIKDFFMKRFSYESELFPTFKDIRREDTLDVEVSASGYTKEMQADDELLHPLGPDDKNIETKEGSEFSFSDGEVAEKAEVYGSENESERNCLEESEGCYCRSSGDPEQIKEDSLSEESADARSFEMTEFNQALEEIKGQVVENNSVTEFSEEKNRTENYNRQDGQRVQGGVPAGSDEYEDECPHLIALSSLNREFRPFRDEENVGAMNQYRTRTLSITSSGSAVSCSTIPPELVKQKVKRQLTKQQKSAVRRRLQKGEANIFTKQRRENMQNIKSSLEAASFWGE

A word on the IC50: it is the concentration at which inhibition is half-maximal. `C=C1CCCCCCCCCC(CO)C1=O` (centres unmarked) [EP009, 2-(Hydroxymethyl)-12-methylenecyclododecanone] gave an IC50 against immunopurified JAK3 of 1000 to 2500 nM. For the same compound, the figures for the “Kinase Activity (% of Control)” value at PIM3, on RIOK2 and at TSSK1B were 100 % of Control, 69 % of Control and 98 % of Control, respectively. The “effect on phospho-STAT3 levels” value with STAT3 is on record as “dose-dependent inhibition”.
